The subject of experiment [1] is iNOS protein expression in human retinal endothelial cells. Kind of experiment: Western blot of iNOS protein expression after agonist treatment of retinal endothelial cells. Format: cell-based. On the procedure: (§1) Denaturing sample buffer (1 ml 2×GDW, 640 μl 1 M Tris-HCl, pH 6.8, 420 μl 30% glycerol, 250 μl β-mercaptoethanol, 200 μL 0.05% bromophenol blue, and 0.125 g recrystallized SDS) was added to 50 μg of protein, as determined by Bradford assay. Protein samples with sample buffer were centrifuged for 5 min to thoroughly mix the samples, followed by heat denaturation for 5 min at 100° C. Protein samples were then separated on 4-12% pre-cast tris-glycine gels (Invitrogen, Carlsbad, Calif.). Electrophoresis and immunoblotting were done as previously described (Steinle et al., J. Biol. Chem. 278 (2003) (23), pp. 20681-20686) using antibodies to iNOS (diluted 1:500, Chemicon, Temecula, Calif.) and PGE2-EP2 receptor subtype (diluted 1:500, Chemicon). Mean densitometry of immunoreactive bands was assessed using Kodak software, and results are expressed in densitometric units. A paired T-test was performed between the sympathectomized and contralateral retina with significance accepted at P<0.05.
(§2) Initial studies focused on human retinal endothelial cells, which express β-adrenergic receptors. Human microvascular retinal endothelial cells were isolated by Applied Cell Biology Research Institute and sold by Cell Systems (Kirkland, Wash.). Cells were used at passage 3-5 for all experiments. Cells were identified as endothelial cells on the basis of their cobblestone morphology. Cells were grown in attachment factor-coated Corning® dishes and in either high or low glucose media. Both high and low glucose media were identical (purchased from Cell Systems and supplemented with 20% fetal bovine serum, 100 IU/ml penicillin, 100 μg/ml streptomycin, and 0.25 μg/ml amphotericin B) except for the glucose concentration: 25 mM glucose (high glc) or 5 mM glucose (low glc). Cells were adjusted to the appropriate glucose environment for 5 days before the experiments were conducted in starvation medium. Starvation medium had the appropriate concentration of glucose and contains all of the above ingredients except that 0.2% bovine serum albumin is substituted for 20% serum.
For experiments, cells were starved for 18-24 h using starvation medium to insure that the results obtained are due to agonist stimulation, not residual effects from the serum. Following starvation, 10 μM isoproterenol (non-specific β-adrenergic receptor agonist), 10 μM xamoterol (β1-adrenergic receptor subtype agonist), or 10 μM BRL37344 (β3-adrenergic receptor subtype agonist) was placed onto dishes and allowed to act on the cells for 1, 2, or 6 h. Three dishes received no treatment and serve as not-treated controls. […] The effects of xamoterol and BRL37344 were evaluated under high glucose conditions only. […]

The subject of experiment [2] is PGE2 levels in human retinal endothelial cells. Kind of experiment: PGE2 ELISA in retinal endothelial cells after agonist treatment. Type of experiment: cell-based. The settings on record: low or high glucose media, 10 μM, 1, 2 or 6 h.
Text: as §2, with “An ELISA assay to measure PGE2 content in cell culture supernatants and retinal samples was purchased from Endogen (Pierce Biotechnology, Rockford, Ill.) and used according to the manufacturer's instructions. Initial” for “Initial”, “serum. […] The effects of xamoterol and BRL37344 were evaluated under high glucose conditions only.” for “serum.”

The subject of experiment [3] is PKA activity in the retina. Briefly: PKA ELISA on retinal lysates after eye drops. The settings on record: 4 drops of 100 μM eye drops. Format: in vivo, rat. On the procedure:
Three groups of animals were used for these experiments. The first group was made diabetic by a single injection of 60 mg/kg streptozotocin and allowed to remain diabetic for 2.5 month and received 4 drops of 100 μM isoproterenol placed into both eyes (STZ). The other two groups were control groups, with one group being non-diabetic but receiving the 100 μM isoproterenol eye drops (Normal), and the other group not receiving any treatment (NT). At 4, 8 and 12 hours after treatment with isoproterenol, retina from the rats was assayed for PKA by ELISA and CREB by Western blot analysis. The retina of rats from each group was assayed for PKA by ELISA. Three rats were evaluated at each time point (4 hours, 8 hours and 12 hours). The PKA ELISA was carried out using the […] Protein Kinase Assay System from Upstate (Lake Placid, N.Y.). To begin the experiments, 0.1M ATP was made and set to a pH of 7.0. cAMP at a concentration of 20 μM was made with reagents purchased from Sigma Aldrich. To obtain the samples to be assayed, animals were sacrificed and the retina was removed and placed in reaction buffer supplied in the kit. One hundred microliters of each sample in reaction buffer was placed into coated wells of a 96-well plate in duplicate. […] Following application of 100 μL of stop solution to end the reaction with the substrate, the plate was read at 490 nm on a BioTek Plate Reader.

The test system of experiment [4] is CREB protein expression in the retina. Kind of experiment: Western blot of CREB protein expression in retina after eye drops. Format: in vivo, rat. The settings on record: 100 μM eye drops, diabetic animals, 8 hours, compared to the normal group. On the procedure:
Three groups of animals were used for these experiments. The first group was made diabetic by a single injection of 60 mg/kg streptozotocin and allowed to remain diabetic for 2.5 month and received 4 drops of 100 μM isoproterenol placed into both eyes (STZ). The other two groups were control groups, with one group being non-diabetic but receiving the 100 μM isoproterenol eye drops (Normal), and the other group not receiving any treatment (NT). At 4, 8 and 12 hours after treatment with isoproterenol, retina from the rats was assayed for PKA by ELISA and CREB by Western blot analysis.
Western blot analysis was also done to determine protein expression of CREB. Two rats were evaluated at each time point (4 hours, 8 hours and 12 hours). Animals were sacrificed and the eyes were removed. The retina was extracted and placed into lysis buffer (50 mM Tris-HCL, pH 7.4; 1% NP-40, 0.25% Na-deoxycholate; 150 mM NaCl; 1 mM EDTA; 1 mM PMSF; 1 μg/ml each of aprotinin, leupeptin, pepstatin; 1 mM Na3VO4; 1 mM NaF; 0.1% SDS). Protein lysates were homogenized and centrifuged to generate a pellet and supernatant. […] Immunoreactive bands were detected by enhanced SuperSignal (Pierce, Rockford, Ill.) and analyzed using the Kodak 2000R image station. Mean densitometry was assessed using Kodak software, and results are expressed as a percentage of the not treated eyes. […]
A general note: In western blotting, separated proteins are transferred to a membrane and probed.

The subject of experiment [5] is PGE2-EP2 receptor subtype expression in human retinal endothelial cells. Kind of experiment: Western blot of PGE2-EP2 receptor subtype expression in retinal endothelial cells. Type of experiment: cell-based. The settings on record: low or high glucose media, 10 μM, 1, 2 or 6 h. The method, then:
as §1
Initial studies focused on human retinal endothelial cells, which express β-adrenergic receptors. […]
For experiments, cells were starved for 18-24 h using starvation medium to insure that the results obtained are due to agonist stimulation, not residual effects from the serum. […] The effects of xamoterol and BRL37344 were evaluated under high glucose conditions only. […]

Another experiment has as its system retina. The following applies: osmotic pump in the rat; cited from earlier work.
Where [6] appears, read: high glucose medium, 10 μM, 1, 2 or 6 h, vs. NT.

Molecules are shown by their SMILES.

Take `C[C@H](Cc1ccc(OCC(=O)O)cc1)NC[C@H](O)c1cccc(Cl)c1` [BRL37344]: the iNOS protein expression result in experiment [1] (setting [6]) is listed as “no effect”.

Regarding `CC(C)NCC(O)c1ccc(O)c(O)c1` (centres unmarked) [isoproterenol], the PGE2 protein levels entry in experiment [2] is given as “did not affect”. Moreover, the “PKA activity in retina” value in experiment [3] (12 hours after treatment) is “significantly increased at 12 hours after treatment relative to the normal, but not when compared to the not treated group”; in experiment [3] (STZ diabetic rats, 8-hour time point, P<0.05 vs. not-treated and vs. normal), “significantly increased”. Also, the “CREB protein expression in retina” value in experiment [4] is reported as “substantial increase”. Also, the “PGE2-EP2 receptor subtype expression” value in experiment [5] is given as “did not affect”. In addition, the iNOS protein expression entry in experiment [1] (high glucose (25 mM) medium, 10 μM, 6 h, P<0.05 vs. not treated) is given as “significantly reduced”; in experiment [1] (low glucose (5 mM) medium, 10 μM, 6 h, P<0.05 vs. not treated), “upregulation”.

Turning to `Cc1ccc(N(CC2=NCCN2)c2cccc(O)c2)cc1` [phentolamine], in the experiment with retina, the “retinal changes as observed after sympathectomy” value is recorded as “no effect”.

Consider `CC(C)NCC(O)COc1cccc2ccccc12` (centres unmarked) [propranolol], for which the “retinal changes as observed after sympathectomy” value in the experiment with retina is reported as “can be mimicked”.

Turning to `O=C(NCCNCC(O)COc1ccc(O)cc1)N1CCOCC1` (centres unmarked) [xamoterol], in experiment [1] (setting [6]), the iNOS protein expression result is reported as “decreased iNOS protein expression”.

These data come from US20070112076A1, “Methods and materials for treating retinopathy” (SOUTHERN ILLINOIS UNIVERSITY, priority 2005, published 2007).
